Assay results as given in patent US20140148446A1, “COMPOUNDS THAT ENABLE ALTERNATIVE MITOCHONDRIAL ELECTRON TRANSFER” (University of North Texas Health Science Center, priority 2010, published 2014).
pEC50: −log10 of the molar value.

Columns and labels:
HT-22 cells [1] = assay: Protection against mitochondrial membrane potential collapse induced by glutamate in HT-22 cells; type: cell-based; conditions: for Potency and efficacy of the protective action on mitochondrial membrane potential collapse (FIG. 12): compared with methylene blue
HT-22 cells [2] = assay: Protection against ROS production induced by glutamate in HT-22 cells; type: cell-based; conditions: for Potency and efficacy of the protective action on reactive oxygen species production (FIG. 11): compared with methylene blue
HT-22 cells [3] = assay: Protection against cell death (cell viability) induced by glutamate in HT-22 cells; type: cell-based; conditions: for Potency and efficacy of the protective action on cell viability (FIG. 10): glutamate toxicity, compared with methylene blue
Procedure: HT-22 cells (gift from Dr. David Schubert, Salk Institute, San Diego, Calif.) were plated at 4,000 cells per well in 96 well plates and cultured over night. […] At the end of the 24 hours, the medium was removed and the plates were rinsed with PBS and incubated with 10 μM calcein-AM (Invitrogen, Carlsbad, Calif.) in PBS for 20 minutes. […] Cell culture wells treated with bleach before rinsing were used as blank.

[4] = test system: mitochondrial complex I-III; type: biochemical, rat; conditions: for Inhibition of complex I-III activity: inhibitor alone
Procedure: (§1) Fresh rat heart was removed and placed in ice-cold mitochondrial isolation buffer containing 210 mM mannitol, 70 mM sucrose, 5 mM HEPES, and 1 mM EDTA, pH 7. The heart was homogenized immediately, and the mitochondrial fraction was isolated by differential centrifugation as described previously (Trounce et al., 1996). Mitochondria were stored at −80° C. until subsequent analysis.
(§2) All mitochondrial activity assays were performed according to previous publications with minimal modifications for complex I (Lenaz et al., 2004), complex I-III, complex II, complex III, and II-III (Trounce et al., 1996). […] Complex I activity was monitored by adding NADH to the mix with or without rotenone/antimycin A. The final data were normalized to blank values at time zero. The reaction was monitored in a kinetic spectrophotometer at 340 nm. Complex I activity was measured in arbitrary units and normalized to control levels for statistical analysis. Isolated mitochondria equivalent to 40-200 μg mitochondrial protein was used for each assay, except for assays with inhibitors, when larger amount of mitochondria (3 to 5 folds) were used to ensure that inhibition was distinguishable. Final data were normalized to control levels. For complex I-III activity, the reaction was initiated with the addition of NADH, cyt c was used as final substrate and its reduction was monitored at 550 nm. For assay of complex II-III activity, succinate was added instead of NADH, and the electron transfer to cyt c was performed according to previous publications (Atamna et al., 2008). To test whether the electrons from the reduced form of MB (MBH2) can be transferred to cyt c in mitochondrial lysate, we added 10 μM 2,7-dichlorofluorescin (DCFH, Invitrogen, Carlsbad, Calif.) to the reaction system. Free radicals convert non-fluorescent DCFH to highly fluorescent DCF (Ex, 488 nm, and Em, 530 nm). In the presence of cyt c, which accepts electrons from MBH2, conversion of DCFH to DCF is decreased.

mitochondrial complex I = assay: Mitochondrial complex I activity assay (NADH dehydrogenase); type: biochemical, rat
Procedure: as §1, §2

[5] = test system: mitochondrial complex II-III; assay: Mitochondrial complex II-III activity in extracted mitochondria; type: biochemical, rat; conditions: inhibitor alone
Procedure: as §1
All mitochondrial activity assays were performed according to previous publications with minimal modifications for complex I (Lenaz et al., 2004), complex I-III, complex II, complex III, and II-III (Trounce et al., 1996). […] Complex I activity was monitored by adding NADH to the mix with or without rotenone/antimycin A. The final data were normalized to blank values at time zero. The reaction was monitored in a kinetic spectrophotometer at 340 nm. Complex I activity was measured in arbitrary units and normalized to control levels for statistical analysis. Isolated mitochondria equivalent to 40-200 μg mitochondrial protein was used for each assay, except for assays with inhibitors, when larger amount of mitochondria (3 to 5 folds) were used to ensure that inhibition was distinguishable. Final data were normalized to control levels. For complex I-III activity, the reaction was initiated with the addition of NADH, cyt c was used as final substrate and its reduction was monitored at 550 nm. […]

[6] = Mus musculus, glutamate, HT-22 cells, read-out: Protection against cell death (EC50)
[7] = glutamate, HT-22 cells, read-out: Protection against cell death (EC50)

Molecule | pEC50 (HT-22 cells [1]; Mus musculus) | Potency and efficacy of the protective action on mitochondrial membrane potential collapse (FIG. 12) (HT-22 cells [1]) | pEC50 (HT-22 cells [2]; Mus musculus) | Potency and efficacy of the protective action on reactive oxygen species production (FIG. 11) (HT-22 cells [2]) | pEC50 (HT-22 cells [3]; [6]) | Potency and efficacy of the protective action on cell viability (FIG. 10) (HT-22 cells [3]; HT-22 cells) | further results
CN(C)CCCN1c2ccccc2Sc2ccc(Cl)cc21 [chlorpromazine] | 5.49 | significantly decrease the potency and efficacy | 5.67 | significantly decrease the potency and efficacy | 5.66 | significantly decreases the potency and efficacy | –
C=C(C)[C@H]1Cc2c(ccc3c2O[C@@H]2COc4cc(OC)c(OC)cc4[C@@H]2C3=O)O1 [rotenone] | – | – | – | – | – | – | Inhibition of complex I-III activity [4]: 90%; Inhibition of complex I activity (mitochondrial complex I; CoQ1 as substrate): above 95%; Inhibition of complex I activity (mitochondrial complex I; MB as substrate, maximum rotenone concentrations): 26.7%
Cc1cc2nc3ccc(N(C)C)cc3[s+]c2cc1N [toluidine blue] | – | – | – | – | – | – | pEC50 (HT-22 cells [1]): 8.81; pEC50 (HT-22 cells [2]): 9.97; pEC50 (HT-22 cells [3]; [7]): 8.76
C1=Cc2ccccc2Nc2ccccc21 [Iminostilbene] | 7.21 | – | 6.32 | – | 6.72 | – | –
CC(=O)N1c2ccc(N(C)C)cc2Sc2cc(N(C)C)ccc21 [Acetyl-MB, acetyl-methylene blue] | – | – | – | – | – | – | Ability to enhance electron transfer between complex I and III ([4]; redox center disabled by N-acetylation): completely lost its ability to enhance electron transfer
Cc1cc2nc3ccc(N(C)C)cc3nc2cc1N.Cl [neutral red] | – | significantly decrease the potency and efficacy | – | significantly decrease the potency and efficacy | – | significantly decrease the potency and efficacy | pEC50 (HT-22 cells [1]): 5.05; pEC50 (HT-22 cells [2]): 4.80; pEC50 (HT-22 cells [3]; [7]): 5.23
c1ccc2c(c1)Nc1ccccc1S2 [phenothiazine] | 7.67 | – | 7.24 | – | – | – | pEC50 (HT-22 cells [3]; Mus musculus, HT-22, read-out: Protection against cell death (EC50)): 7.72
CN(C)CCCN1c2ccccc2CCc2ccccc21 [impramine] | 4.54 | significantly decrease the potency and efficacy | 4.07 | significantly decrease the potency and efficacy | 4.28 | significantly decreases the potency and efficacy | –
antimycin A | – | – | – | – | – | – | Inhibition of complex I-III activity [4]: 70%; Inhibition of complex II-III activity [5]: 80%
CC(CN1c2ccccc2Sc2ccccc21)N(C)C (stereo not drawn) [promethazine] | 6.67 | significantly decrease the potency and efficacy | 5.01 | significantly decrease the potency and efficacy | 5.69 | significantly decreases the potency and efficacy | –
Clc1ccc2c(c1)Nc1ccccc1S2 [2-chlorophenothiazine] | 7.35 | – | 7.08 | – | 8.34 | – | –
